Results on nine compounds are retold here after US11497752B2, “Compounds and uses thereof” (Foghorn Therapeutics Inc., priority 2018, dated 2022).

Structures are written as SMILES. Some results are limits rather than exact numbers.

The target in one test is BRG-1 (Homo sapiens, UniProt P51532). Description: ATPase catalytic activity of BRG-1 (ADP-Glo in vitro biochemical assay). The settings on record: for BRG1 Max % Inhibition: Table 6. For orientation: In ADP-Glo the light output rises with the ADP produced.
Chain of BRG-1 (P51532 whole entry): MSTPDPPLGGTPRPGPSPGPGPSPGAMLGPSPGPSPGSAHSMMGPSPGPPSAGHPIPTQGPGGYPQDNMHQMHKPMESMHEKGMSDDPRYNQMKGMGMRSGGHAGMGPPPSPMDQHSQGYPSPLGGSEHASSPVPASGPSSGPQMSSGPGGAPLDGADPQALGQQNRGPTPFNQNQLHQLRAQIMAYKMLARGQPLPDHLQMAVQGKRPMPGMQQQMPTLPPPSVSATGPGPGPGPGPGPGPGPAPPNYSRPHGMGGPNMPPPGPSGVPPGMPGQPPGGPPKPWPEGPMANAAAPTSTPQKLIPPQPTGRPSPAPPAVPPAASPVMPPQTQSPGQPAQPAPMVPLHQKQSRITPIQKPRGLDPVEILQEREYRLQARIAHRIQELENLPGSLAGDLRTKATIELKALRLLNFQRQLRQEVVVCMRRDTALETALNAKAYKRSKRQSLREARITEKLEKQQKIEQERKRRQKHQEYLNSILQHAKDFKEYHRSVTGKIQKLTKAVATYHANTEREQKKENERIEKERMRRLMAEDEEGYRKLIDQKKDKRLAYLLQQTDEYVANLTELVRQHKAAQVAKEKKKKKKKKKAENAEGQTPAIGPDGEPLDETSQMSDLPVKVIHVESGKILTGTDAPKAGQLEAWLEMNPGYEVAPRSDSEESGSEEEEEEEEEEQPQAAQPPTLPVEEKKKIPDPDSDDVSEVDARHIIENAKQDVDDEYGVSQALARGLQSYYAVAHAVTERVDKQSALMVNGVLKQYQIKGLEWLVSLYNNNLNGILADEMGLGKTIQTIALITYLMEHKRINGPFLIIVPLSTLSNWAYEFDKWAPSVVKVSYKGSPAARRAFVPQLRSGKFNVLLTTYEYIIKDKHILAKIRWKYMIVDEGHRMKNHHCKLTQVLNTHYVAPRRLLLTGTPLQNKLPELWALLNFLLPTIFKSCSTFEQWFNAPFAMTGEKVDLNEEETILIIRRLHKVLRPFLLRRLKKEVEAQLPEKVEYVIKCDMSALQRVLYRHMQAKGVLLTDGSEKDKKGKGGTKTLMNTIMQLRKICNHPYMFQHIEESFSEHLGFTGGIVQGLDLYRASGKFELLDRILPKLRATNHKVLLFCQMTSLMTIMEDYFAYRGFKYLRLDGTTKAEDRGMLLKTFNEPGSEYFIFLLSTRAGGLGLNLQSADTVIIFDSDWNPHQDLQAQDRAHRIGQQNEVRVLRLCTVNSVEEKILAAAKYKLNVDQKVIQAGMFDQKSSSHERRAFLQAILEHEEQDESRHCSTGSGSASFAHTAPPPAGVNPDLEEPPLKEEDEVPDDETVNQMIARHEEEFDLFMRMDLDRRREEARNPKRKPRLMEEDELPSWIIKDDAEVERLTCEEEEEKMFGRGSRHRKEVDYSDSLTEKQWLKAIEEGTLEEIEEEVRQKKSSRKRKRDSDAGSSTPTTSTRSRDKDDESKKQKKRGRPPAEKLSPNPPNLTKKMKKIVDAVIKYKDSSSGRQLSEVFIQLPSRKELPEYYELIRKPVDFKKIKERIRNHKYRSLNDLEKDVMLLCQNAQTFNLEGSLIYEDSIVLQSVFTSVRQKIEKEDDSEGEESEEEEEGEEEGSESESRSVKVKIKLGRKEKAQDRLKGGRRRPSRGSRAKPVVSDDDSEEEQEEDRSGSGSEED
Another test addresses BRM (Homo sapiens, UniProt P51531). Put plainly: ATPase catalytic activity of BRM (ADP-Glo in vitro biochemical assay). The settings on record: for BRM Max % Inhibition: Table 6.

Chain of BRM (P51531 whole entry): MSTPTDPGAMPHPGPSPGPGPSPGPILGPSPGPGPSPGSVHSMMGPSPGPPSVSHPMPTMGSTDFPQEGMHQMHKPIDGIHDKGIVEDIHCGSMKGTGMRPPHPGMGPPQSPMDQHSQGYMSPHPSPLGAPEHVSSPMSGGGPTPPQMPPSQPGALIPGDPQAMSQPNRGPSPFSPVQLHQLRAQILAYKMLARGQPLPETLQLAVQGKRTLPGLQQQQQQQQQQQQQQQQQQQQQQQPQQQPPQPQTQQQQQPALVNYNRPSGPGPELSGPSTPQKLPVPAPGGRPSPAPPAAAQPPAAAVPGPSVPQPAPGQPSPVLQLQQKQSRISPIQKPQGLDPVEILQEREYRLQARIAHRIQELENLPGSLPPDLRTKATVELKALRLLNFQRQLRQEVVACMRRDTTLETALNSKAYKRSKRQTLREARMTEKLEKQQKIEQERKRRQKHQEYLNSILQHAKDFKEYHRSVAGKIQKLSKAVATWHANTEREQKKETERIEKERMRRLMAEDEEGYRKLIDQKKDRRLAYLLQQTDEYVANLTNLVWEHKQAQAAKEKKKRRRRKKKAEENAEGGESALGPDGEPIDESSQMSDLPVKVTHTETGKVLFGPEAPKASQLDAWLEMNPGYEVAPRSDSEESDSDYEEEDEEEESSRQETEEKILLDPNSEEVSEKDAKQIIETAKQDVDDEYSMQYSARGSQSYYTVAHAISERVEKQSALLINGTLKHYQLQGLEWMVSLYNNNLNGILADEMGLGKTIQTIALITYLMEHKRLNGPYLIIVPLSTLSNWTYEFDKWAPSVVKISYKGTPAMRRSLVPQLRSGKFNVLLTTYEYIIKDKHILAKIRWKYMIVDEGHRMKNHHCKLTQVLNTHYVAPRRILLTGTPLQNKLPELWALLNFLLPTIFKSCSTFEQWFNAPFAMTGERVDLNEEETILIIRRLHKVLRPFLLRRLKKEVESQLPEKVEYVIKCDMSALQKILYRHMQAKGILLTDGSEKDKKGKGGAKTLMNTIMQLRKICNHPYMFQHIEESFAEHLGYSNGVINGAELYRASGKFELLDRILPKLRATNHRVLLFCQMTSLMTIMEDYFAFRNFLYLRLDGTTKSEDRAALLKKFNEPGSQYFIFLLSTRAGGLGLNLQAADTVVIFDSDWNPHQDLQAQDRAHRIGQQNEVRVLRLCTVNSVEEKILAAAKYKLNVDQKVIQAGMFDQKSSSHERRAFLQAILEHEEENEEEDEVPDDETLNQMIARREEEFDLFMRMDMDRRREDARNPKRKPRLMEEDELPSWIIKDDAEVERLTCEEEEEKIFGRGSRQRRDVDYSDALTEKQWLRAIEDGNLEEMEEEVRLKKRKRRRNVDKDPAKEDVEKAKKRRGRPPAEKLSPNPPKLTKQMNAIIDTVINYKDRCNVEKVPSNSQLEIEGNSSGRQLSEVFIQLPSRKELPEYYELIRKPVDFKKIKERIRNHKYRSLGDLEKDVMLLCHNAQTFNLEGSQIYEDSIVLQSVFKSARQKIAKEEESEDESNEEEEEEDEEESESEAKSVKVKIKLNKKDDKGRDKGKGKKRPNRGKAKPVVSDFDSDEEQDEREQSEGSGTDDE

Broadly, the IC50 is the midpoint of a concentration-inhibition curve. Read a low IC50 as higher potency. As for `Nc1ccc(C(=O)NCC(=O)Nc2nc(-c3ccc4c(c3)OCC4)cs2)cc1` [Compound 112, 4-amino-N-(2-((4-(2,3-dihydrobenzofuran-6-yl)thiazol-2-yl)amino)-2-oxoethyl)benzamide], at BRG-1, the IC50 is 100 to 1000 nM and the “BRG1 Max % Inhibition” value is more than 80%. Further, at BRM, the IC50 was in the range of 100 to 1000 nM and the “BRM Max % Inhibition” value is more than 90%.

`Nc1ccc(C(=O)NCC(=O)Nc2nc(-c3ccccc3O)cs2)cc1` [Compound 114, 4-amino-N-(2-((4-(2-hydroxyphenyl)thiazol-2-yl)amino)-2-oxoethyl)benzamide]: at BRG-1, the IC50 fell in the range of 1000 to 10000 nM and the “BRG1 Max % Inhibition” value was more than 80%. On BRM, the IC50 was in the range of 100 to 1000 nM and the “BRM Max % Inhibition” value is more than 80%.

On to `Nc1ccc(C(=O)NCC(=O)Nc2nc(-c3ccc(O)cc3)cs2)cc1` [Compound 115, 4-amino-N-(2-((4-(4-hydroxyphenyl)thiazol-2-yl)amino)-2-oxoethyl)benzamide], for which, on BRG-1, the IC50 lay within 100 to 1000 nM and the “BRG1 Max % Inhibition” value is on record as more than 90%. At BRM, the IC50 fell in the range of 100 to 1000 nM and the “BRM Max % Inhibition” value is on record as more than 90%.

Consider `CSCC[C@H](NC(=O)c1ccc(N)cc1)C(=O)Nc1nc(-c2cc(C#N)cc(-c3ccccc3)c2)cs1` [Compound 116, (S)-4-amino-N-(1-((4-(5-cyano-[1,1′-biphenyl]-3-yl)thiazol-2-yl)amino)-4-(methylthio)-1-oxobutan-2-yl)benzamide], for which, on BRG-1, the IC50 lay within 100 to 1000 nM and the “BRG1 Max % Inhibition” value is on record as more than 95%. Further, on BRM, the IC50 lay within 100 to 1000 nM and the “BRM Max % Inhibition” value is recorded as more than 95%.

For the compound `CSCC[C@H](NC(=O)c1ccc(N)cc1)C(=O)Nc1nc(-c2cccc(-c3ccc(CN)cc3)c2)cs1` [Compound 118, (S)-4-amino-N-(1-((4-(4′-(aminomethyl)-[1,1′-biphenyl]-3-yl)thiazol-2-yl)amino)-4-(methylthio)-1-oxobutan-2-yl)benzamide], at BRG-1, the IC50 lay within 1000 to 10000 nM and the “BRG1 Max % Inhibition” value is more than 90%. In addition, at BRM, the IC50 fell in the range of 100 to 1000 nM and the “BRM Max % Inhibition” value is more than 90%.

Regarding `CSCC[C@H](NC(=O)c1ccc(N)cc1)C(=O)Nc1nc(-c2ccc(C#N)c(-c3ccccc3)c2)cs1` [Compound 119, (S)-4-amino-N-(1-((4-(6-cyano-[1,1′-biphenyl]-3-yl)thiazol-2-yl)amino)-4-(methylthio)-1-oxobutan-2-yl)benzamide], at BRG-1, the IC50 lay within 1000 to 10000 nM and the “BRG1 Max % Inhibition” value is given as more than 95%. Further, at BRM, the IC50 lay in the range of 100 to 1000 nM and the “BRM Max % Inhibition” value is more than 95%.

`CSCC[C@H](NC(=O)c1ccc(N)cc1)C(=O)Nc1nc(-c2cccc(CNC(C)=O)c2)cs1` [Compound 120, (S)-N-(1-((4-(3-(acetamidomethyl)phenyl)thiazol-2-yl)amino)-4-(methylthio)-1-oxobutan-2-yl)-4-aminobenzamide]: on BRG-1, the IC50 was in the range of 100 to 1000 nM and the “BRG1 Max % Inhibition” value was more than 90%. Further, on BRM, the IC50 is 100 to 1000 nM and the “BRM Max % Inhibition” value is listed as more than 90%.

Consider `CSCC[C@H](NC(=O)c1ccc(N)cc1)C(=O)Nc1nc(-c2ccc(CNC(C)=O)cc2)cs1` [Compound 121, (S)-N-(1-((4-(4-(acetamidomethyl)phenyl)thiazol-2-yl)amino)-4-(methylthio)-1-oxobutan-2-yl)-4-aminobenzamide], for which, at BRG-1, the IC50 fell in the range of 100 to 1000 nM and the “BRG1 Max % Inhibition” value is more than 95%. At BRM, the IC50 is 100 to 1000 nM and the “BRM Max % Inhibition” value is recorded as more than 95%.

With `COC(=O)N1CCC[C@H](c2csc(NC(=O)CNC(=O)c3ccc(N)cc3)n2)C1` [Compound 122, (S)-methyl 3-(2-(2-(4-aminobenzamido)acetamido)thiazol-4-yl)piperidine-1-carboxylate], at BRG-1, the IC50 is 1000 to 10000 nM and the “BRG1 Max % Inhibition” value is given as more than 90%. Also, at BRM, the IC50 was 100 to 1000 nM and the “BRM Max % Inhibition” value is more than 95%.
